From ChEMBL document CHEMBL1134339, “New 1-aryl-3-(4-arylpiperazin-1-yl)propane derivatives, with dual action at 5-HT1A serotonin receptors and serotonin transporter, as a new class of antidepressants” (J Med Chem, 2001)

Experiments:
[1] = target: T1, 5-hydroxytryptamine receptor 1A (Homo sapiens) (UniProt P08908); assay: Percent increase in the Forskolin-Stimulated cAMP formation, in HeLa cells transfected with the 5-HT 1A receptor at 1 uM concentration; format: functional, cell-based
T1 sequence (whole entry): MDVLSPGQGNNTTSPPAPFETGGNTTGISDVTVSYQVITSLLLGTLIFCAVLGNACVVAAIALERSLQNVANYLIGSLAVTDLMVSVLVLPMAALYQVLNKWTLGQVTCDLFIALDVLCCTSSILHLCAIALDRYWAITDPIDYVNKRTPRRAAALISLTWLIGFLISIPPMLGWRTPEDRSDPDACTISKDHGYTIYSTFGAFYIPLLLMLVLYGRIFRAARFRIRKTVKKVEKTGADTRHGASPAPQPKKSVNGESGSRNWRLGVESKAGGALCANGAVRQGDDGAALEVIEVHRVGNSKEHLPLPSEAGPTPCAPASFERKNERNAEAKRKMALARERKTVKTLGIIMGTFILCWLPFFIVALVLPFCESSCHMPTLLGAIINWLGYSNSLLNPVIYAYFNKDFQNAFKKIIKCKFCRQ

Mus musculus [2] = assay: Effect on immobility time in the forced swimming test (FST) in mice at 0.01 mg/kg dose; format: functional
Mus musculus [3] = assay: Antidepressant-like activity in the forced swimming test (FST) in mice at 0.01 mg/kg dose; Antidepressant like activity; format: functional
Mus musculus [4] = assay: Time-dependent effect on 8-OH-DPAT-induced hypothermia (change in body temperature) after 30 min, in mice at 0.01 mg/kg dose; format: functional
Rattus norvegicus [5] = assay: Effect on helpless behavior in rats and the number of escape failures was determined in shuttle-box session-1 (SB-1) at 10 mg/kg dose; format: functional
Rattus norvegicus [6] = assay: Effect on helpless behavior in rats and the number of escape failures was determined in shuttle-box session-2 (SB-2) at 10 mg/kg dose; format: functional
[7] = target: 5-hydroxytryptamine receptor 2A (Rattus norvegicus, UniProt P14842); assay: Affinity at 5-hydroxytryptamine 2 receptor (For ketanserin = Ki(nM)= 0.7+/-0.09)
[8] = target: T2, 5-hydroxytryptamine receptor 3A (Rattus norvegicus, UniProt P35563); assay: Affinity at 5-hydroxytryptamine 3 receptor (For granisetron = Ki (nM)=0.3+/-0.01)
T2 sequence (P35563 whole entry): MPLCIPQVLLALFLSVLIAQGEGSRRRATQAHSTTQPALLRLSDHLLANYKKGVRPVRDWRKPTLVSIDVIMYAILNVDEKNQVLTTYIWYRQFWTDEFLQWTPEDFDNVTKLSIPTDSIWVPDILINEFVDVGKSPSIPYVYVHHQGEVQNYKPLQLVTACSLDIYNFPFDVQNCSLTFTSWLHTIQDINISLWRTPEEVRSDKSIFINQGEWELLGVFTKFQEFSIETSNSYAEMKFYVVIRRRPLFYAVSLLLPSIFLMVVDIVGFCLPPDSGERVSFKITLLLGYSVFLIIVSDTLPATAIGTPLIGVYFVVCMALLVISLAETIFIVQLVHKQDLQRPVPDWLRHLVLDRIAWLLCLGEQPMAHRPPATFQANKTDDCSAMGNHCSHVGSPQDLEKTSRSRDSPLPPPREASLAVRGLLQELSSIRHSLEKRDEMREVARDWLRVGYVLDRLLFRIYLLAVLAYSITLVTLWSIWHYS

D(2) dopamine receptor = D(2) dopamine receptor (Rattus norvegicus, UniProt P61169); assay: Affinity at dopamine D2 receptor, (For haloperidol Ki(nM)= 1.5+/-1.2)
Adrenergic receptor beta = Adrenergic receptor beta (Rattus norvegicus, UniProt P18090+P10608+P26255); assay: Affinity at beta-adrenoceptor (For DHA Ki(nM)= 3.5+/-0.3); format: protein assay
Mus musculus [9] = assay: Antidepressant-like activity in the forced swimming test (FST) in mice at 0.1 mg/kg dose; format: functional
[10] = target: Muscarinic acetylcholine receptor; assay: Affinity at muscarinic receptor, (For atropine Ki(nM)= 3.5+/-0.3); format: protein assay

Chain of D(2) dopamine receptor (P61169 whole entry): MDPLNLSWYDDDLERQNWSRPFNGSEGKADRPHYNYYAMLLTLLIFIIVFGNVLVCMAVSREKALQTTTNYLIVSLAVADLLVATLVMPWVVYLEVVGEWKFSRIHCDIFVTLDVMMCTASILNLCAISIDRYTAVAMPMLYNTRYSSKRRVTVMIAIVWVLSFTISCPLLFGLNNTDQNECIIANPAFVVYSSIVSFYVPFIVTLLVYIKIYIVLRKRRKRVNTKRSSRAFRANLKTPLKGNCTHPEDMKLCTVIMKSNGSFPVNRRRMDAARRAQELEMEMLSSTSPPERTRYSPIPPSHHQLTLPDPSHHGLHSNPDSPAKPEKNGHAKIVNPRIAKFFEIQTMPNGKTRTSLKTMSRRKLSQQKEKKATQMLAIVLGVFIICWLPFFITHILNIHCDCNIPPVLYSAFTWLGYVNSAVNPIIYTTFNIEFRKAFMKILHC
Chain of 5-hydroxytryptamine receptor 2A (P14842 whole entry): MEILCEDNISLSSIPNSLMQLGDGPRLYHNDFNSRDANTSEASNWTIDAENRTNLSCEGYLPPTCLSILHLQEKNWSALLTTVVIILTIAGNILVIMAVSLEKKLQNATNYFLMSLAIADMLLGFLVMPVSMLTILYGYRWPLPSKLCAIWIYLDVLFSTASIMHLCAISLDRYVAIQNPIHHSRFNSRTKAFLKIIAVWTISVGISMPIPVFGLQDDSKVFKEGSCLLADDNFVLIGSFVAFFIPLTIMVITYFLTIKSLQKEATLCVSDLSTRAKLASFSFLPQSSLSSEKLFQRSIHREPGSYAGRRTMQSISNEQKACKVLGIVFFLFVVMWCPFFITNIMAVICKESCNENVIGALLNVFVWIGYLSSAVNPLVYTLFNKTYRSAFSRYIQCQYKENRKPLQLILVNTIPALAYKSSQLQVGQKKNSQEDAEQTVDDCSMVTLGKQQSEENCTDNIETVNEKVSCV

| SMILES | cAMP increase [1] [%] | Immobility time (Mus musculus [2]) [s] | Activity (Mus musculus [3]) [%] | Temperature change (Mus musculus [4]) [°C] | No. of escape failures (Rattus norvegicus [5]) | No. of escape failures (Rattus norvegicus [6]) | Ki [7] [µM] | Ki [8] [µM] | Ki (D(2) dopamine receptor) [nM] | Ki (Adrenergic receptor beta) [µM] | Activity (Mus musculus [9]) [%] | Ki [10] [µM] |
| --- | --- | --- | --- | --- | --- | --- | --- | --- | --- | --- | --- | --- |
| COc1ccccc1N1CCN(CCC(O)c2csc3ccccc23)CC1 (configuration not stated) | 64 | <54.4 | 70 | -1.3 | 6.6 | 3.2 | – | – | – | – | – | – |
| COc1ccccc1N1CCN(CCC(=O)c2csc3ccccc23)CC1 | – | – | – | – | – | – | 5 | > 5 | 500 | > 5 | 18 | > 5 |
